Measurements published in publication PMC4523496 (Molecular psychiatry, 2015).

How the values were obtained:
[1] = test system: extracellular dopamine in the NAc; test: In vivo microdialysis of NAc shell dopamine; design: species or system rat; details: for extracellular NAc dopamine, compound alone: cocaine 10 mg/kg systemic, neurotensin 10 nMol or LPS 10 ng intra-VTA; for increase of NAc dopamine concentrations: intra-VTA LPS vs systemic cocaine; for effect on basal NAc dopamine levels: antagonist alone; for effect on intra-VTA neurotensin-induced elevation of NAc dopamine: control for non-specific disruption of neuronal responsiveness
MD-2 [2] = molecular target: T1, MD-2 (Homo sapiens, UniProt Q9Y6Y9); test: Bis-ANS displacement assay; assay type: binding
T1 sequence (Q9Y6Y9 19-160): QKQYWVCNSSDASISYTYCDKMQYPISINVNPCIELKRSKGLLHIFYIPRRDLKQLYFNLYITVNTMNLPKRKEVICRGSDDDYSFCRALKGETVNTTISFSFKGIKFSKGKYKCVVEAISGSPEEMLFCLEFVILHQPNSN

MD-2 [3] = molecular target: T1, MD-2; test: Biophysical ELISA binding assays
[4] = test system: cocaine conditioned place preference; test: Conditioned place preference; assay type: in vivo, rat; details: tested drug-free; cocaine 10 mg/kg i.p.
[5] = test system: cocaine self-administration; test: Rat self-administration; assay type: in vivo; details: pre-session (+)-naltrexone s.c.
[6] = assay type: in vivo, rat; details: pretreatment […] s.c. twice; cocaine 10 mg/kg i.p.; hippocampus
[7] = test system: isolated neonatal microglial cells; test: IL-1β mRNA expression in isolated neonatal microglial cell culture; details: neonatal microglia; (+)-naloxone 1, 10, 100 µM co-treatment
[8] = test system: IL-1β mRNA in VTA, NAc, vmPFC; test: IL-1β mRNA in brain micro-punches after systemic drug; assay type: in vivo, rat; details: (+)-naloxone […] s.c. twice; 30 min and 2 h after cocaine 10 mg/kg

COC(=O)[C@H]1[C@@H](OC(=O)c2ccccc2)C[C@@H]2CC[C@H]1N2C [Cocaine]
extracellular NAc dopamine, compound alone [1]: robust increases in extracellular NAc dopamine
increase of NAc dopamine concentrations [1]: 300%
Ki (MD-2 [2]): 23.9 ± 5.9 µM
binding to human MD-2 (ELISA) (MD-2 [3]; aptamer-immobilized cocaine): bound to human MD-2 in a concentration-dependent manner
conditioned place preference, compound alone [4]: produces place preference

CN(C)c1ccc(O)c2c1C[C@H]1C[C@H]3[C@H](N(C)C)C(O)=C(C(N)=O)C(=O)[C@@]3(O)C(O)=C1C2=O [minocycline]
conditioned place preference, compound alone [4]: neither water nor minocycline altered place preference

O=C1CC[C@]2(O)[C@@H]3Cc4ccc(O)c5c4[C@]2(CCN3CC2CC2)[C@@H]1O5 [(+)-naltrexone]
effect on food-maintained responding [5]: failed to suppress responding to food
effect on responding for cocaine (self-administration) ([5]; fixed-ratio dose-response): suppressed responding for cocaine at the peak cocaine doses

IL1ra: IL-1 receptor antagonist
effect on basal NAc dopamine levels [1]: did not alter basal DA levels in the NAc
effect on intra-VTA neurotensin-induced elevation of NAc dopamine [1]: did not alter neurotensin-induced dopamine elevations in the NAc

lipopolysaccharide [LPS]
extracellular NAc dopamine, compound alone [1]: increased
increase of NAc dopamine concentrations [1]: < 200%
competition with cocaine for binding to MD-2 (ELISA) (MD-2 [3]; varying concentrations of LPS added): displaced cocaine binding to MD-2

neurotensin
extracellular NAc dopamine, compound alone [1]: induced increased NAc dopamine

C=CCN1CC[C@]23c4c5ccc(O)c4O[C@H]2C(=O)CC[C@]3(O)[C@H]1C5 [(+)-Naloxone]
effect on brain cocaine concentrations [6]: not altered
effect on cocaine-induced upregulation of IL-1β mRNA [7]: blocked
effect on basal NAc dopamine levels [1]: did not influence basal dopamine levels
effect on intra-VTA neurotensin-induced elevation of NAc dopamine [1]: unaltered
effect on cocaine-induced increases of intra-VTA IL1β mRNA [8]: blocked
conditioned place preference, compound alone [4]: produced no appetitive or aversive CPP
